pIC50: −log10 of the molar value.
test system: U937 human histiocytic leukemia cell line; assay: Inhibition of TSQ induced necroptosis in U937 cells (CellTitre-Glo); conditions: Homo sapiens, U-937, TSQ cocktail (TNF, Smac mimetic, Q-VD-OPh), 48 hours, read-out: Inhibition of TSQ-induced necroptosis (IC50 cell-based assay)
Procedure, shortened: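 U937 cells (20000/well) treated with compound (10-point, 1:3 from 36 μM, 0.3% DMSO) plus TSQ cocktail (hTNF-Fc 100 ng/ml, Smac mimetic 500 nM, Q-VD-OPh 10 μM), 48 h at 37 °C. Viability by CellTiter-Glo luminescence; IC50 from 4-parameter logistic fit. Counter screen: same cells without TSQ.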

SMILES | pIC50
C[C@H](Oc1cc(-c2nn(C)c3c(-c4cnn(CC(F)(F)F)c4)cnc(N)c23)ccc1NS(=O)(=O)C(F)F)c1ccc(F)cc1 [Compound 116, (S)-N-(4-(4-amino-1-methyl-7-(1-(2,2,2-trifluoroethyl)-1H-pyrazol-4-yl)-1H-pyrazolo[4,3-c]pyridin-3-yl)-2-(1-(4-fluorophenyl)ethoxy)phenyl)-1,1-difluoromethanesulfonamide] | > 8.00
CC1C(n2cc(-c3cnc(N)c4c(-c5ccc(NS(=O)(=O)C(F)F)c(O[C@@H](C)c6ccc(F)cc6)c5)nn(C)c34)cn2)CN1C (stereo partly drawn) [Compound 147, N-(4-(4-amino-7-(1-(1,2-dimethylazetidin-3-yl)-1H-pyrazol-4-yl)-1-methyl-1H-pyrazolo[4,3-c]pyridin-3-yl)-2-((S)-1-(4-fluorophenyl)ethoxy)phenyl)-1,1-difluoromethanesulfonamide] | 6.00 to 8.00
C[C@H](Oc1cc(-c2nn(C)c3c(-c4cnn(C5CCN(CC(F)(F)F)C(C)(C)C5)c4)cnc(N)c23)ccc1NS(=O)(=O)C(F)F)c1ccc(F)cc1 (stereo partly drawn) [Compound 167, N-(4-(4-amino-7-(1-(2,2-dimethyl-1-(2,2,2-trifluoroethyl)piperidin-4-yl)-1H-pyrazol-4-yl)-1-methyl-1H-pyrazolo[4,3-c]pyridin-3-yl)-2-((S)-1-(4-fluorophenyl)ethoxy)phenyl)-1,1-difluoromethanesulfonamide] | 6.00 to 8.00
C[C@H](Oc1cc(-c2nn(C)c3c(-c4cnn(C5CC6CCC(C5)N6CC(F)(F)F)c4)cnc(N)c23)ccc1NS(=O)(=O)C(F)F)c1ccc(F)cc1 (stereo partly drawn) [Compound 153, N-(4-(4-amino-1-methyl-7-(1-(8-(2,2,2-trifluoroethyl)-8-azabicyclo[3.2.1]octan-3-yl)-1H-pyrazol-4-yl)-1H-pyrazolo[4,3-c]pyridin-3-yl)-2-((S)-1-(4-fluorophenyl)ethoxy)phenyl)-1,1-difluoromethanesulfonamide] | 6.00 to 8.00
CC(C)N(C)C(=O)C(C)n1cc(-c2cnc(N)c3c(-c4ccc(NS(=O)(=O)C(F)F)c(O[C@@H](C)c5ccc(F)cc5)c4)nn(C)c23)cn1 (stereo partly drawn) [Compound 81, 2-(4-(4-amino-3-(4-((difluoromethyl)sulfonamido)-3-((S)-1-(4-fluorophenyl)ethoxy)phenyl)-1-methyl-1H-pyrazolo[4,3-c]pyridin-7-yl)-1H-pyrazol-1-yl)-N-isopropyl-N-methylpropanamide] | > 8.00
C[C@H](Oc1cc(-c2nn(C)c3c(-c4cnn(C5CCN(C)C(C)(C)C5)c4)cnc(N)c23)ccc1NS(=O)(=O)C(F)F)c1ccc(Cl)cc1 (stereo partly drawn) [Compound 159, N-(4-(4-amino-1-methyl-7-(1-(1,2,2-trimethylpiperidin-4-yl)-1H-pyrazol-4-yl)-1H-pyrazolo[4,3-c]pyridin-3-yl)-2-((S)-1-(4-chlorophenyl)ethoxy)phenyl)-1,1-difluoromethanesulfonamide] | > 8.00
C[C@H](Oc1cc(-c2nn(C)c3c(-c4cnn(C5CCN(C)C6(CC6)C5)c4)cnc(N)c23)ccc1NS(=O)(=O)C(F)F)c1ccc(F)cc1 (single isomer, unassigned) [Compound 170, N-(4-(4-amino-1-methyl-7-(1-((S*)-4-methyl-4-azaspiro[2.5]octan-7-yl)-1H-pyrazol-4-yl)-1H-pyrazolo[4,3-c]pyridin-3-yl)-2-((S)-1-(4-fluorophenyl)ethoxy)phenyl)-1,1-difluoromethanesulfonamide] | 6.00 to 8.00
C[C@H](Oc1cc(-c2nn(C)c3c(C#CC4CCN(C)CC4)cnc(N)c23)ccc1NS(=O)(=O)C(F)F)c1ccc(F)cc1 [Compound 80, (S)—N-(4-(4-amino-1-methyl-7-((1-methylpiperidin-4-yl)ethynyl)-1H-pyrazolo[4,3-c]pyridin-3-yl)-2-(1-(4-fluorophenyl)ethoxy)phenyl)-1,1-difluoromethanesulfonamide] | 6.00 to 8.00

Reference: patent US20250059188A1, “ARYLSULPHONAMIDE COMPOUNDS” (Anaxis Pharma Pty Ltd, priority 2021, published 2025)
